According to US20030161893A1, “PTPase inhibitors and methods of using the same” (priority 2001, published 2003):

Assays:
[1] = tested on: U266 cells; test: Cell proliferation assay (MTT), U266 multiple myeloma cells; assay type: cell-based, human; conditions: day 6
Description: (§1) For cell proliferation assays, cells were grown in 10% FCS culture medium containing various amounts of IFNs and/or sodium stibogluconate in 96 well plates and cultured at 37° C. for 3 or 6 days as indicated. The numbers of viable cells in proliferation assays were determined by MTT assays as described in Phatak et al., J. Immunol. 167, 3391 (2001).

[2] = Tolerability in nude mice (viability, body weight, organs); assay type: in vivo
Description: Nude mice bearing WM9 or DU145 xenografts were treated with IFN-alpha (500,000 U, s.c., daily), sodium stibogluconate (12 mg Sb, s.c., daily) or both. […] The dosage of sodium stibogluconate corresponds to approximately 440 mg Sb/kg body weight (average mouse body weight 27 g), substantially higher than the standard therapeutic dose of 20 mg Sb/kg and the high dose (143 mg Sb/kg) that was clinically used by accident without serious toxicity. This dose of sodium stibogluconate was based on a previous observation in a pilot study that mice could tolerate daily dose of 20 mg Sb (approximately 700-800 mg Sb/kg). An observation that the effect of sodium stibogluconate in inhibiting the growth of the cancer cell lines in vitro was dose-dependent with complete or near complete killing of the cancer cells at […] (or 100 ug Sb/kg) was also considered. In light of the relatively rapid rate of clearance of the drug in vivo, 440 mg Sb/kg dosage was used to ensure the detection of the effectiveness of the drug for this initial study.
As discussed above, the dosage of sodium stibogluconate used for the treatment of nude mice was 12 mg Sb/mouse, s.c., daily (or approximately 440 mg/kg body weight). This dosage is much higher than the standard dose for leishmaniasis (20 mg Sb/kg, daily). As an initial step to assess the toxicity of such a high dosage of sodium stibogluconate in nude mice, the effect of sodium stibogluconate on the viability and body weights of WM9 xenografts nude mice during the 25 day period of the study was determined.
Athymic nude mice (nu/nu, NCR), 4 weeks old (Taconic), were inoculated (s.c.) in the flanks with DU145 cells (3×10^6 cells/site) on day 0. Starting on day 2, the mice were subjected to no treatment (Control) or treatment with sodium stibogluconate (12 mg, s.c., daily, […], at the hip area). The dosage of sodium stibogluconate used in the study was similar to the effective daily dose of sodium stibogluconate for the treatment of murine leishmaniasis (Murray, et al. 1988). Tumor volume was measured and calculated using the formula for a prolate spheroid (V=4/3 7 a^2b) (Lindner, et al. 1997). Hematoxylin+Eosin (H.E.) stained tissue sections of internal organs and tumor inoculation sites tissues of the mice were prepared and subjected microscopic evaluation.

[3] = tested on: Baf3 cells; test: Induction of cellular protein tyrosine phosphorylation in Baf3 cells (Western blotting); assay type: cell-based, murine; conditions: Baf3 deprived of IL-3; proteins of about 55 and 32 kDa
Description: For induction of cellular protein phosphorylation by sodium stibogluconate or pervanadate, Baf3 cells were incubated in 0.1% FCS-RPMI 1640 medium at 37° C. for 16 hours. The cells were then washed twice in RPMI 1640 medium and incubated with sodium stibogluconate or pervanandate (0.1 mM) for various times prior to termination by lysing cells in cold lysis buffer (50 mM Tris, pH 7.4; 150 mM NaCl; 0.2 mM Na3VO4; 20 mm NaF; 1% Nonidet P-40; 2 mM PMSF; 20 μg/ml of Aprotinin and 1 mM of sodium molybdic acid). To determine the effect of sodium stibogluconate or potassium antimonyl tartrate on IL-3-induced Jak/Stat phosphorylation, Baf3 cells were deprived of the growth factor for 16 hours in 0.1% FCS RPMI 1640 medium and then incubated with or without sodium stibogluconate or potassium antimonyl tartrate for 10 minutes. IL-3 was next added to the cell suspension and incubated for various times. The Cells were then harvested and lysed in cold lysis buffer at 4° C. for 45 minutes. Total cell lysates (TCL) were separated in SDS-PAGE gels, blotted onto nitrocellulose membrane (Schleicher & Schuell), probed with specific antibodies and detected using an enhanced chemiluminescence kit (ECL, Amersham, Arlington Heights, Ill.).

[4] = tested on: DU145 cells; test: Cell proliferation assay (MTT), DU145 prostate cancer cells; assay type: cell-based, human
Description: as §1
NIH3T3 (Yi, et al., Blood 85, 87 (1995)), WM9 (Forsberg, et al., Proc. Nat. Acad Sci. USA 90, 393 (1993)), DU145 (Mickey, et al., Cancer Res. 37, 4049 (1977)), LoVo (Drewinko, et al., Cancer Res. 36, 467 (1976)), HEY (Buick, et al., Cancer Res. 45, 3668 (1985)), U251 (Yoshida, et al., Cancer 50, 410 (1982)), A549 (Giard, et al., J. Natl. Cancer Inst. 51, 1417 (1973)) and SK-N-SH (Helson, et al., Cancer Res. 35, 2594 (1975)) cell lines have been described and were cultured in RPMI 1640 supplemented with 10% fetal calf serum (FCS). For measurement of sodium stibogluconate effects on cell growth in vitro, cells were cultured in the absence (−) or presence (+) of various amounts of sodium stibogluconate for 6 days with viable cells quantified by MTT assays (Mosmann, J. Imunol. Methods 65, 55 (1983)). Percentages of growth inhibition by sodium stibogluconate were calculated (+/−×%).

[5] = tested on: Stat1; test: IFN-alpha-induced Stat1 tyrosine phosphorylation, DR cells; assay type: cell-based, human
Description: For induction of Stat1 tyrosine phosphorylation by IFN-alpha in the absence or presence of sodium stibogluconate, cells grown in 10% FCS RPMI 1640 medium at 37° C. were stimulated with IFN-alpha (50 u/ml) for various time points and treated with or without sodium stibogluconate for 5 minutes prior to termination by lysing the cells in cold lysis buffer (1% NP-40; 50 mM Tris, pH 7.4; 100 mM NaCl; 1 mM EDTA, 10% glycerol, 10 mM sodium molybdic acid and 4 mM AEBSF).
Cell lysates were prepared by lysing cells in cold lysis buffer for 30 min and cleared by centrifuging at 14,000 rpm at 4° C. for 15 min. For SDS-PAGE, cell lysates were mixed with equal volume of 2×SDS-PAGE sample buffer, heated at 90° C. for 5 min and separated in 10% SDS-PAGE gels. Cellular proteins in SDS-PAGE gels were transferred to nitrocellulose membrane (Schleicher & Schuell, Keene, N.H.), blocked in 5% milk, probed with antibodies and detected by using an enhanced chemiluminescence kit (ECL, Amersham, Arlington Heights, Ill.).

**Q.** With `O.O.O.O.O.O.O.O.O.O=C([O-])[C@@H]1[O][Sb]2([O-])([O][Sb]34([OH])[O][C@H]([C@H](O)CO)[C@H]([O]3)[C@H](C(=O)[O-])[O]4)[O][C@H]([C@H](O)CO)[C@@H]1[O]2.[Na+].[Na+].[Na+]` [sodium stibogluconate] as the compound, how does the “IFN-alpha-induced growth inhibition of U266 cells in presence of drug” value [1] read?
**A.** augmentation of IFN-alpha-induced cell growth inhibition

**Q.** And the “growth inhibition of U266 cells by the drug by itself” value [1]?
**A.** substantial growth inhibition activity

**Q.** And the “tolerability at the dosage used” value ([2]; 12 mg Sb daily (440 mg Sb/kg daily))?
**A.** well tolerated with no serious side effects

**Q.** What about the “survival of DU145 tumor mice” value ([2]; 440 mg/kg daily) of the same compound?
**A.** survived until the end of the study

**Q.** And the “histology of major organs” value ([2]; 440 mg/kg daily, DU145 tumor mice)?
**A.** unremarkable

**Q.** And the “tolerated daily dose in mice (pilot study)” value ([2]; approximately 700-800 mg Sb/kg)?
**A.** 20 mg Sb

**Q.** And the “survival of WM9 xenograft nude mice” value ([2]; day 25, 4 mice/group)?
**A.** survived until the end of the study

**Q.** What about the “cellular protein tyrosine phosphorylation” value [3] of the same compound?
**A.** induced protein tyrosine phosphorylation

**Q.** What about the “killing of DU145 cells, single agent” value ([4]; 50 μg/ml and 100 μg/ml, day 6 culture) of the same compound?
**A.** killed all cells

**Q.** What about the “cell killing, DU145” value ([4]; 100 μg/ml, day 6) of the same compound?
**A.** near-complete cell killing

**Q.** And the “IFN-alpha-induced growth inhibition of DU145 in presence of drug” value ([4]; day 6)?
**A.** augmented

**Q.** And the “IFN-alpha-induced Stat1 tyrosine phosphorylation versus control” value ([5]; 10 μg/ml, 30 min post-stimulation)?
**A.** two folds greater than control

**Q.** And the “Stat1 tyrosine phosphorylation by drug alone” value ([5]; absence of IFN-alpha)?
**A.** failed to induce Stat1 tyrosine phosphorylation
